Experimental data published in publication PMC3928078, “Ponatinib efficiently kills imatinib-resistant chronic eosinophilic leukemia cells harboring gatekeeper mutant T674I FIP1L1-PDGFRα: roles of Mcl-1 and β-catenin” (Molecular Cancer, 2014).

Target: T1, FIP1L1-PDGFRα (Homo sapiens, UniProt P16234, T674I, form not given)
T1 construct: gene PDGFRA; with Pre-mRNA 3'-end-processing factor FIP1
Type: cell-based
Conditions: 24 h, 1000 nM, positive control; gatekeeper mutant; stated gain (imatinib resistance)

T1 sequence (P16234 550-1089 T674I limits assumed, form open): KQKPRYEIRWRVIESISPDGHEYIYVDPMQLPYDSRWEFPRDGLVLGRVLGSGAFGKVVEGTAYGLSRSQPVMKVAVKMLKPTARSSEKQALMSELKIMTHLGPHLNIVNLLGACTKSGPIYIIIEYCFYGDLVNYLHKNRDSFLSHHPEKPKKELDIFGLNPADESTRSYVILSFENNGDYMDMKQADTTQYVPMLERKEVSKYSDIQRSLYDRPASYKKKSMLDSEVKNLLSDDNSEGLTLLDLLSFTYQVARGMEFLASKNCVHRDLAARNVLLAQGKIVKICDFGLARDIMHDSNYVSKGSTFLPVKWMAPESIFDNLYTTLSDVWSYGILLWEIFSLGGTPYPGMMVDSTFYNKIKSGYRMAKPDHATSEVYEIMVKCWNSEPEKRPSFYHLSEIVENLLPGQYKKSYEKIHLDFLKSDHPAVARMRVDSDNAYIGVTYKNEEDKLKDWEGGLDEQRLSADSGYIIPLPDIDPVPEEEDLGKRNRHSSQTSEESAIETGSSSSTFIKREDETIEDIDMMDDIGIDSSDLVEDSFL
T1 sequence (Q6UN15 whole entry partner, form open): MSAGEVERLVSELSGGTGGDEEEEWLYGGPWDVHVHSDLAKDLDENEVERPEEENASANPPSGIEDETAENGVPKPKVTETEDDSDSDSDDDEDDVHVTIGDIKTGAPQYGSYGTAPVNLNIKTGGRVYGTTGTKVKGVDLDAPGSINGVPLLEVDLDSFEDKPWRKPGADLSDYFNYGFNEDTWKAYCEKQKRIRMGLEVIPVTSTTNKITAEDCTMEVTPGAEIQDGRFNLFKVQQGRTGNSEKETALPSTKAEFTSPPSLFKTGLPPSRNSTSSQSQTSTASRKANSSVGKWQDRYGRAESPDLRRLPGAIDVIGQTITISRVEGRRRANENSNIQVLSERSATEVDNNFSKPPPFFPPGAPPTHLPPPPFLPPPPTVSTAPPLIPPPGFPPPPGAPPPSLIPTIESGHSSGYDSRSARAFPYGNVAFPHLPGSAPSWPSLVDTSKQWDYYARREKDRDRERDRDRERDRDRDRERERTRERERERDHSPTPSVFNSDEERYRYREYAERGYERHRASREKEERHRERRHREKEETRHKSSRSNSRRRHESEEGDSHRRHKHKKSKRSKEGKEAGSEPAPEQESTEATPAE

## CNC(=O)c1cc(Oc2ccc(NC(=O)Nc3ccc(Cl)c(C(F)(F)F)c3)cc2)ccn1 [sorafenib]
  immunoblot of phospho-PDGFRα (Y1018) in BaF3 cells: The phosphorylation of T674I FIP1L1-PDGFRα was altered by sorafenib but not imatinib
